We go through two compounds from ChEMBL document CHEMBL1127666, “Phosphonate analogs of carbocyclic nucleotides” (J Med Chem, 1994).

The test system of the experiment is HEp-2. Briefly: Cytotoxicity to human epidermoid carcinoma cells (HEP-2). The experiment is classed as functional, cell-based.

On to `Nc1nc(O)c2ncn(C3CC(O)C(OCP(=O)(O)O)C3)c2n1` (configuration not stated), for which the IC50 turned out to be 2.4 µM.

Take `Nc1nc(O)c2ncn([C@@H]3C[C@H](CO)[C@@H](O)C3)c2n1`: inhibition was half-maximal at 95 µM (IC50).
